The target in this experiment is T1, GTF180-ΔN (GTF180) (Limosilactobacillus reuteri, UniProt Q5SBN3).
T1 construct: N-terminally truncated GTF180-ΔN (catalytic and C-terminal domains), 117 kDa
The experiment can be described thus: UPLC-MS of dynamic combinatorial library (cleavage to A1H8). Conditions: 30 μM protein, mixture of library members with 10 mM aniline, pH 5.2, 10 % DMSO, room temperature. The format is biochemical.

Here are results for 1 compound from publication PMC7818428, “Potential Dental Biofilm Inhibitors: Dynamic Combinatorial Chemistry Affords Sugar‐Based Molecules that Target Bacterial Glucosyltransferase” (Chemmedchem, 2020).

Structures are written as SMILES.

T1 sequence (Q5SBN3 entry or part of it, stated change not applied): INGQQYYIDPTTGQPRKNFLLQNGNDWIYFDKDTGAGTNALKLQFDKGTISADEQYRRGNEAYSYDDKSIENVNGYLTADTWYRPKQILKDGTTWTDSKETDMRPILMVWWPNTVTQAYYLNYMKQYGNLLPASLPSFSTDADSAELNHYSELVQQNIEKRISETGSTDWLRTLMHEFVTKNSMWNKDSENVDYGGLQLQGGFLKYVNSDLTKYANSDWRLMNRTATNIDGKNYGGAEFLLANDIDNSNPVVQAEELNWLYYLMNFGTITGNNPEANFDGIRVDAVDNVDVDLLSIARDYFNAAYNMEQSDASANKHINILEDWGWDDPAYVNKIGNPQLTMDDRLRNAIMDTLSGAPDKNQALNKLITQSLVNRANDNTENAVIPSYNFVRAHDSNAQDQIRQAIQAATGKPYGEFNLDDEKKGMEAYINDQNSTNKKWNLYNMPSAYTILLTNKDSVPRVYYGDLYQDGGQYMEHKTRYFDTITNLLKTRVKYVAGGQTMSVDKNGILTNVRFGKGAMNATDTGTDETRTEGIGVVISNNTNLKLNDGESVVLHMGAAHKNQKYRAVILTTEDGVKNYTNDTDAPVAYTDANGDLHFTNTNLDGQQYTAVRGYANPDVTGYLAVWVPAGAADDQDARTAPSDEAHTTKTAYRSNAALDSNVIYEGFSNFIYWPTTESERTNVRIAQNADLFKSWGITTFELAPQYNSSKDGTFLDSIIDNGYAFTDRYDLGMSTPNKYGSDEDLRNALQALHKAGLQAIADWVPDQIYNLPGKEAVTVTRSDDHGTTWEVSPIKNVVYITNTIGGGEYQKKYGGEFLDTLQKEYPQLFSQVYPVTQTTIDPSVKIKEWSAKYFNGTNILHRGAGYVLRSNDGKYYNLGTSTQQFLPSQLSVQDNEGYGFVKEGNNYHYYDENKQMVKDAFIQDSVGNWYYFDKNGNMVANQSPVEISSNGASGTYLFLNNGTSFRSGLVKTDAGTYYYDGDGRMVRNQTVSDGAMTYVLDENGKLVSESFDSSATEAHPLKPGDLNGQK

As to `O=C(CC1CCCC1)N/N=C/c1ccc(O[C@@H]2O[C@H](CO)[C@@H](O[C@H]3O[C@H](CO)[C@@H](O)[C@H](O)[C@H]3O)[C@H](O)[C@H]2O)cc1` [A2H8], the “UPLC-MS of dynamic combinatorial library (cleavage to A1H8)” value is “maltose‐derived acylhydrazones A2H2 and A2H8 with a lipophilic”.
